“Also recorded” adds a separate entry of the source. Like-named read-outs stand apart in the source and are kept apart here.
Key:
[1] = system: TTX-sensitive sodium currents in adult rat DRG neurons; settings: cited from earlier work
TTX-resistant VGSCs = settings: cited from earlier work
Nav1.8 = Nav1.8 (Rattus norvegicus, UniProt Q62968); settings: read-out: TTX IC50; cited from earlier work
Nav1.7 [2] = target: Nav1.7 (Rattus norvegicus, UniProt O08562); settings: read-out: TTX IC50; cited from earlier work
[3] = system: mouse saphenous nerve C-fibers
Nav1.3 = Nav1.3 (Rattus norvegicus, UniProt P08104); settings: read-out: TTX IC50; cited from earlier work
Nav1.4 = Nav1.4 (Rattus norvegicus, UniProt P15390); settings: read-out: TTX IC50; cited from earlier work
Nav1.6 = Nav1.6 (Rattus norvegicus, UniProt O88420); settings: read-out: TTX IC50; cited from earlier work
[4] = rat plasma, 37° C., incubation time 0 hr (normalization point)
rats [5] = settings: rat, in vivo; cited from earlier work
rats [6] = settings: rat, in vivo, 0.1 mg/kg; cited from earlier work
male CD-1 mice [7] = settings: for terminal exposure (peptide plasma concentration): 2 h post peptide injection
hNav1.6 = hNav1.6 (Homo sapiens, UniProt Q9UQD0); experiment: cell-based; assay type: cell-based
Sequence of hNav1.6 (Q9UQD0 whole entry): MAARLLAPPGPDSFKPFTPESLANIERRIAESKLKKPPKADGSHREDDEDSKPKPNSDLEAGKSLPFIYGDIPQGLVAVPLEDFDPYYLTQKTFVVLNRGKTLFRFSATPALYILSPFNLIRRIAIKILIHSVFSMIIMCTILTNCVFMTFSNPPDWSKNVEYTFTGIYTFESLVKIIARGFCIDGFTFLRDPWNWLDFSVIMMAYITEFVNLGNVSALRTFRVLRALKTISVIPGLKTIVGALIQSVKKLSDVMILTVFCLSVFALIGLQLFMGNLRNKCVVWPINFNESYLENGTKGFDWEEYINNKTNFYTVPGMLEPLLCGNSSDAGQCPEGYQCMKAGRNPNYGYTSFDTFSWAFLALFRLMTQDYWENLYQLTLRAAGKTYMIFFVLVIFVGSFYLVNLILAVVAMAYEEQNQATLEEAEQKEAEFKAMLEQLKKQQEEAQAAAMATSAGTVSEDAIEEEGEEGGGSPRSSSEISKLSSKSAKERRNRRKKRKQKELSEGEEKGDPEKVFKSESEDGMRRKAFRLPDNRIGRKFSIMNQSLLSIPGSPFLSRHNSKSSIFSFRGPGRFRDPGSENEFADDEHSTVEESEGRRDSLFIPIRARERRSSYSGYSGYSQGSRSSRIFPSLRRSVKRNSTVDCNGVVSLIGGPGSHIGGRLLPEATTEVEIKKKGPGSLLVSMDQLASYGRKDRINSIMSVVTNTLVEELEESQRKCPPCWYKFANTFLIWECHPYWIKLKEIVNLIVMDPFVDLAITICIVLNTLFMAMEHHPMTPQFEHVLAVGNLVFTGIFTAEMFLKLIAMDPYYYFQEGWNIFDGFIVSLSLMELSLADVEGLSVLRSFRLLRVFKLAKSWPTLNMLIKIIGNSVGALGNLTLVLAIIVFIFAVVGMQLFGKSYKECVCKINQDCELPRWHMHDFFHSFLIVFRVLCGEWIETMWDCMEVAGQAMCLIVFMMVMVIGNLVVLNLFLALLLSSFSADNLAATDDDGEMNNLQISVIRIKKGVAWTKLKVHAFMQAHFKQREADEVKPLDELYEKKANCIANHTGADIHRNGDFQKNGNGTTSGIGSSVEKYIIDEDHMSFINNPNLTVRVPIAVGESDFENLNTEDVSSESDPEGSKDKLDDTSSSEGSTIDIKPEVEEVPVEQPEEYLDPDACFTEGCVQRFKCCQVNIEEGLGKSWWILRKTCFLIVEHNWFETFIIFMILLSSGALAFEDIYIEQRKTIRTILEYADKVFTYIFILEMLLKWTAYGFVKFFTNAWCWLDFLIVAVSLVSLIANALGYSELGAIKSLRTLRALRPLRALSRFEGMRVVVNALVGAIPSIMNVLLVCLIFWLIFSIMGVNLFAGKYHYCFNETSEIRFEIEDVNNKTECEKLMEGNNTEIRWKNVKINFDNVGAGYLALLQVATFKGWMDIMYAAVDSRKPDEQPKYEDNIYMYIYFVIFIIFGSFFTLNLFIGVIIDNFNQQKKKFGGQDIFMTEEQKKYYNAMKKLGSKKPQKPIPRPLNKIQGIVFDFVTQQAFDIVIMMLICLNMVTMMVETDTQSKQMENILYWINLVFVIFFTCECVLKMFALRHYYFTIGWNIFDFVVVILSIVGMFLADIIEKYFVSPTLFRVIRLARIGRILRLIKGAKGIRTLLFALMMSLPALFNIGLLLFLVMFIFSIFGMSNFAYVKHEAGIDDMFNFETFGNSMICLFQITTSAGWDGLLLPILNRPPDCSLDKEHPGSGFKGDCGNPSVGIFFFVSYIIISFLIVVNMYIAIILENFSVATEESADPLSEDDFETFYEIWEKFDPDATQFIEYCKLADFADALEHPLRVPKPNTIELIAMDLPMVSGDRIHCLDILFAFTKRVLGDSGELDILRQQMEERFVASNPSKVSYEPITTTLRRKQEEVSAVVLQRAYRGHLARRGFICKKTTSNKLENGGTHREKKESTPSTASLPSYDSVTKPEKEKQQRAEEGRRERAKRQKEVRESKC

[8] = system: TTX-sensitive Nav channels in Sprague Dawley rat DRG neuron
male CD-1 mice [9] = settings: 5.0 mg/kg s.c.
male CD-1 mice [10] = system: male CD-1 mice
[11] = system: TTX-sensitive Nav channels in mouse DRG neuron
[12] = mouse plasma, 37° C., incubation 0 hr (normalisation point)
in vivo [13] = settings: male, Sprague-Dawley, rat, sc, 5 mg/kg
in vivo [14] = settings: male, CD-1, mouse, sc
hNav1.7 [15] = target: T1, hNav1.7 (Homo sapiens, UniProt Q15858); experiment: cell-based; assay type: cell-based; settings: Table 15; read-out: PX hNav1.7 Tonic IC50
T1 sequence (Q15858 whole entry): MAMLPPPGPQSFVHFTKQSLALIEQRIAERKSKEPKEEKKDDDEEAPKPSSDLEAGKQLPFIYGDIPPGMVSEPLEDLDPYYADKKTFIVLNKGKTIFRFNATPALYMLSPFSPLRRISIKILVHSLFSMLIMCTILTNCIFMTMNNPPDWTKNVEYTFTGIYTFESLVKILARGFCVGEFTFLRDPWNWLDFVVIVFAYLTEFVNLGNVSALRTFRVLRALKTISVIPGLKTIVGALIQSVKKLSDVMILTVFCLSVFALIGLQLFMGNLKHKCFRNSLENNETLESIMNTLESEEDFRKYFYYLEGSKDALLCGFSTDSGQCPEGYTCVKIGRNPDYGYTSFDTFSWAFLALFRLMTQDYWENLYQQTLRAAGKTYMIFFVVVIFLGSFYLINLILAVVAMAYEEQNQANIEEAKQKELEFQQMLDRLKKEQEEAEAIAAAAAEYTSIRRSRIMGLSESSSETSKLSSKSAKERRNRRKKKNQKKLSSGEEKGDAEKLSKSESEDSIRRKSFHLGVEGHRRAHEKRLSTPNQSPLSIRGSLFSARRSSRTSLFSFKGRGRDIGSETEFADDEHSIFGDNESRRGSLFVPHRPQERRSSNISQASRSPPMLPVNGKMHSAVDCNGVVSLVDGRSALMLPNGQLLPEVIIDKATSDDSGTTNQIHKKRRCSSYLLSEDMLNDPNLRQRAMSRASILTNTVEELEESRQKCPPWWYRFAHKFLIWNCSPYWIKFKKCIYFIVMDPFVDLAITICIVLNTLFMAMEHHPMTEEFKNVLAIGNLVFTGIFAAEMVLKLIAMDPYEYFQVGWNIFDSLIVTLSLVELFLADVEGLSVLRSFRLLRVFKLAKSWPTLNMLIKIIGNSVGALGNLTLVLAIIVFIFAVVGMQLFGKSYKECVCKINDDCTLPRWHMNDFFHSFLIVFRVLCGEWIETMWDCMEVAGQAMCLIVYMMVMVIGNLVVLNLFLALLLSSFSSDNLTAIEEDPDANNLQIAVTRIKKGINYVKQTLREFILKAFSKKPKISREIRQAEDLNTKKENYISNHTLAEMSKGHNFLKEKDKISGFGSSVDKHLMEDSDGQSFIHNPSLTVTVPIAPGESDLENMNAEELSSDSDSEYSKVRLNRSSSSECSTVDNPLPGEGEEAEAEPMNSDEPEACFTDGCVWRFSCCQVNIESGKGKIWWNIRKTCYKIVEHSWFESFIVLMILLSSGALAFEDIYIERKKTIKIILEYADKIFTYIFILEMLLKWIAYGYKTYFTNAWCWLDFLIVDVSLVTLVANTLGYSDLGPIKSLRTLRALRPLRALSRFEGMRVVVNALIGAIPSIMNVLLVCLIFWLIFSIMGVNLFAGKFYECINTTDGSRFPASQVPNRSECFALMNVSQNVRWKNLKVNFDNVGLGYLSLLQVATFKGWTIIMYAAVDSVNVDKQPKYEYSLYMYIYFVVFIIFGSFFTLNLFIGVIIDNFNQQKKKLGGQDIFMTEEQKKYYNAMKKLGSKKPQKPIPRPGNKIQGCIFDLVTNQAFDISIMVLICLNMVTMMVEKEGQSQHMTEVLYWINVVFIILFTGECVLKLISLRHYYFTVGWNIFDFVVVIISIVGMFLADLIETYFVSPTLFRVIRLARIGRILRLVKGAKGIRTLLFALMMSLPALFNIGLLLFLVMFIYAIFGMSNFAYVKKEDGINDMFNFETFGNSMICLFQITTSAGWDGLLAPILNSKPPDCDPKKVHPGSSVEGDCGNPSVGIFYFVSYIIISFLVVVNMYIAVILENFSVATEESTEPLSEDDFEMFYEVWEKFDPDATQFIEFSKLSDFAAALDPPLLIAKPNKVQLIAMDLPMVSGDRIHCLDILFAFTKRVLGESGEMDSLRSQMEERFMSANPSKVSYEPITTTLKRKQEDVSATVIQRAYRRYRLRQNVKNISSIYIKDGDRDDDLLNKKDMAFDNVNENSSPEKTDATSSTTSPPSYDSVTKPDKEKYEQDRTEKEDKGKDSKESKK

hNav1.7 [16] = target: T1, hNav1.7; experiment: cell-based; settings: ratio of IonWorks Quattro IC50 values, Nav1.4 over Nav1.7
hNav1.7 [17] = target: T1, hNav1.7; experiment: cell-based; assay type: cell-based
hNav1.4 = hNav1.4 (Homo sapiens, UniProt P35499); experiment: cell-based; assay type: cell-based; settings: PX
male Sprague-Dawley rats [18] = settings: 5.0 mg/kg s.c.; 2 h post peptide injection
[19] = cyno plasma, 37° C., incubation 0 hr (normalisation point)
[20] = 1 mg/kg s.c.
[21] = human plasma, 37° C., incubation 0 hr (normalisation point)
male Sprague-Dawley rats [22] = settings: 5.0 mg/kg s.c.
NaV1.7 [23] = target: NaV1.7 (Homo sapiens, UniProt Q15858); settings: read-out: EC50, impairs fast inactivation; cited from earlier work
Sequence of NaV1.7 (Q15858 whole entry): as above

[24] = 0.1, 0.3, and 1.0 mg/kg s.c., 1-hour pre-treatment

Molecule: Huwentoxin-IV [HWTX-IV]
- IC50 [1]: 30 nM
- effect on TTX-resistant VGSCs (TTX-resistant VGSCs): no effect

Molecule: NC1=N[C@H](O)[C@H]2[C@H]3O[C@]4(O)O[C@@H]([C@@H](O)[C@@]2(N1)[C@@H]4O)[C@]3(O)CO [TTX, tetrodotoxin]
- IC50 (Nav1.8): > 50000 nM
- IC50 (Nav1.7 [2]): 4 nM
- action potential firing, in words [3]: completely blocked action potential firing
- IC50 (Nav1.3): 2 to 15 nM
- IC50 (Nav1.4): 5 nM
- IC50 (Nav1.6): 1 nM

Molecule: CC[C@H](C)[C@H](NC(=O)[C@H](CCCCN)NC(=O)[C@H](CCCNC(=N)N)NC(=O)[C@@H]1CSSC[C@@H]2NC(=O)[C@H](C)NC(=O)[C@H](CCCNC(=N)N)NC(=O)[C@H](CCCCN)NC(=O)[C@H](CO)NC(=O)[C@H](CC(=O)O)NC(=O)[C@@H]3CSSC[C@H](NC(=O)[C@H](CCC(=O)O)NC(=O)[C@H](CC(C)C)NC(=O)CNC(=O)[C@H](CCC(=O)O)NC(=O)[C@H](CSSC[C@H](NC(=O)[C@@H](N)Cc4ccc(O)cc4)C(=O)N[C@@H](CCC(N)=O)C(=O)N[C@@H](CCCCN)C(=O)N[C@@H](Cc4c[nH]c5ccccc45)C(=O)N[C@@H](CCSC)C(=O)N[C@@H](Cc4c[nH]c5ccccc45)C(=O)N[C@@H]([C@@H](C)O)C(=O)N3)NC2=O)C(=O)N[C@@H](CCCCN)C(=O)N[C@@H](CC(C)C)C(=O)N[C@@H](Cc2c[nH]c3ccccc23)C(=O)N1)C(=O)N[C@@H](Cc1c[nH]c2ccccc12)C(N)=O [SEQ ID NO: 112, [Glu20,Trp29]JzTx-V(1-29)]
- % Peptide Remaining [4]: 100%

Molecule: YCQKWMWTCDSERKCCEGMVCRLWCKKKLW [ProTx-II]
- efficacy in mechanical hyperalgesia study (rats [5]): not efficacious
- tolerability (rats [6]): lethal

Molecule: CC[C@H](C)[C@H](NC(=O)[C@H](CCCCN)NC(=O)[C@H](CCCNC(=N)N)NC(=O)[C@@H]1CSSC[C@@H]2NC(=O)[C@H](C)NC(=O)[C@H](CCCNC(=N)N)NC(=O)[C@H](CCCCN)NC(=O)[C@H](CO)NC(=O)[C@H](CC(=O)O)NC(=O)[C@@H]3CSSC[C@H](NC(=O)[C@H](CCC(=O)O)NC(=O)[C@H](CC(C)C)NC(=O)CNC(=O)[C@H](CCC(=O)O)NC(=O)[C@H](CSSC[C@H](NC(=O)[C@@H](N)Cc4ccc(O)cc4)C(=O)N[C@@H](CCC(N)=O)C(=O)N[C@@H](CCCCN)C(=O)N[C@@H](Cc4c[nH]c5ccccc45)C(=O)N[C@@H](CCSC)C(=O)N[C@@H](Cc4c[nH]c5ccccc45)C(=O)N[C@@H]([C@@H](C)O)C(=O)N3)NC2=O)C(=O)N[C@@H](CCCCN)C(=O)N[C@@H](CC(C)C)C(=O)N[C@@H](Cc2c[nH]c3ccccc23)C(=O)N1)C(=O)N[C@@H](Cc1c[nH]c2ccccc12)C(N)=O [compound 112]
- terminal exposure (peptide plasma concentration) (male CD-1 mice [7]; 0.1 mg/kg s.c.): 0.0248 ± 0.00668 µM
- terminal exposure (peptide plasma concentration) (male CD-1 mice [7]; 0.3 mg/kg s.c.): 0.121 ± 0.0296 µM
- terminal exposure (peptide plasma concentration) (male CD-1 mice [7]; 1.0 mg/kg s.c.): 0.419 ± 0.226 µM
- terminal exposure (peptide plasma concentration) (male CD-1 mice [7]; 5.0 mg/kg s.c.): 4.73 ± 0.584 µM
- total basic movement component of locomotor activity (male CD-1 mice [7]; [24]): No doses of peptide significantly decreased exploratory behavior
- total rearing component of locomotor activity (male CD-1 mice [7]; [24]): No doses of peptide significantly decreased exploratory behavior
- total basic movement, total fine movement, total rearing, or total time rearing (male CD-1 mice [7]; 0.1, 0.3, or 1.0 mg/kg s.c., 1-hour pre-treatment): no effect
- selectivity for Nav1.7 over Nav1.6 (hNav1.6; PatchXpress): 454 fold
- Nav1.6/Nav1.7 (hNav1.6; Table 15, ratio of PX tonic IC50 values): 454
- IC50 (hNav1.6; Table 15, read-out: PX hNav1.6 Tonic IC50): 720 nM
- IC50 [8]: 261 nM
- 1.x/1.7 ([8]; partially inactivated, rTTX-S / hNav1.7): 1135
- terminal plasma exposure (male CD-1 mice [9]; 2 h post peptide injection): 1.75 ± 0.536 µM
- thermal latency compared to vehicle (PBS) (male CD-1 mice [9]; CFA thermal hyperalgesia, male CD-1 mice): no effect
- terminal plasma exposure (male CD-1 mice [10]; 0.1 mg/kg s.c., 45 min post-formalin injection, mean±SEM): 0.0278 ± 0.0105 µM
- terminal plasma exposure (male CD-1 mice [10]; 0.3 mg/kg s.c., 45 min post-formalin injection): 0.121 ± 0.0411 µM
- pain response relative to the vehicle, first phase (male CD-1 mice [10]; 1 mg/kg s.c., 1-hour pre-treatment): may have slightly increased the pain response
- terminal plasma exposure (male CD-1 mice [10]; 1.0 mg/kg s.c., 45 min post-formalin injection): 0.412 ± 0.0858 µM
- plasma concentration over the IC50 for blocking TTX-S current in mouse DRG neurons (WCPC) (male CD-1 mice [10]; 5.0 mg/kg s.c.): about 10 fold
- terminal plasma exposure (male CD-1 mice [10]; 5.0 mg/kg s.c., 45 min post formalin injection): 2.63 ± 0.777 µM
- 1.x/1.7 [11]: 1213
- loss in potency in mouse DRG neurons relative to the human clone of Nav1.7 ([11]; TTX-sensitive current): ~1000 fold
- 1.x/1.7 ([11]; partially inactivated, mTTX-S (fresh DRG) / hNav1.7): 917
- % Peptide Remaining [12]: 100%
- level at time molar at 2 h (in vivo [13]): 994 ± 184 nM
- level at time molar at 2 h (in vivo [14]; 0.1 mg/kg): 24.8 ± 6.68 nM
- level at time molar at 2 h (in vivo [14]; 0.3 mg/kg): 121 ± 29.6 nM
- level at time molar at 2 h (in vivo [14]; 1 mg/kg): 419 ± 226 nM
- IC50 (hNav1.7 [15]): 1.59 nM
- Nav1.4/Nav1.7 (hNav1.7 [16]): 178
- block of hNav1.7 current (hNav1.7 [17]; 100 nM): approximately 80%
- block of hNav1.7 current, in words (hNav1.7 [17]; 100 nM): did not completely block Nav1.7 current; also recorded: only partial inhibition
- 1.x/1.7 (hNav1.7 [17]; partially inactivated, hNav1.7 / hNav1.7): 1
- selectivity against hNav1.4 relative to hNav1.7 (hNav1.4): > 1000 fold
- terminal exposure (peptide plasma concentration) (male Sprague-Dawley rats [18]): 0.994 ± 0.184 µM
- % Peptide Remaining [19]: 100%
- plasma concentration over the in vitro hNav1.7 IC50 (PX) ([20]; CD-1 mice, for 3 h): 26 fold
- tolerability ([20]; mice): tolerated
- % Peptide Remaining [21]: 100%
- effect in the first or acute phase (0-5 min) (male Sprague-Dawley rats [22]; 1-hour pre-treatment, male Sprague-Dawley rats): no effect
- terminal plasma exposure (male Sprague-Dawley rats [22]; 45 min post-formalin injection): 1.18 ± 0.156 µM

Molecule: OD1 [OD 1]
- EC50 (NaV1.7 [23]): 4.5 nM

Reference: patent US10344060B2 (priority 2013, dated 2019)
